A short description of this data set: Solubility in water at 20° C. The note with it: for Solubility of organic solvent in water: 20° C.; for Solubility of curing catalyst in water: under atmospheric pressure at 20° C.

Each structure is given as a SMILES string.

Consider five molecules from patent US11512224B2, “Water-based coating composition and production method of the same” (TOYOTA JIDOSHA KABUSHIKI KAISHA, priority 2018, dated 2022).

Take `COCC(C)O` (stereo not shown) [PGME, 1-methoxy-2-propanol]: the “Solubility of organic solvent in water” value was ≥ 10 or g/100 ml. For the same molecule, the “Solubility of organic solvent in water” value (listed as 1-methoxy-2-propanol) is given as at least 10 g/100 ml.
As to `C1CCC2=NCCCN2CC1.Cc1ccc(S(=O)(=O)O)cc1` [DBU salt, diazabicycloundecene p-toluenesulfonate], the “Solubility of curing catalyst in water” value (listed as diazabicycloundecene p-toluenesulfonate, p-toluenesulfonate) was at least 0.5 g/100 ml and the “Solubility of curing catalyst in water” value (p-toluenesulfonate) is given as 5 or greater g/100 ml.
As for `C1CCC2=NCCCN2CC1` [DBU, diazabicycloundecene], the “Solubility of curing catalyst in water” value is 5 or greater g/100 ml. For the same molecule, the “Solubility of curing catalyst in water” value (listed as diazabicycloundecene) was at least 0.5 g/100 ml.
For the molecule `CC(C)O` [IPA, 2-propanol], the “Solubility of organic solvent in water” value was ≥ 10 or g/100 ml. Besides, the “Solubility of organic solvent in water” value (listed as 2-propanol) was at least 10 g/100 ml.
With `C1CN=C2CCCN2C1` [DBN, diazabicyclononene], the “Solubility of curing catalyst in water” value is 5 or greater g/100 ml. Besides, under “listed as diazabicyclononene”, the “Solubility of curing catalyst in water” value is reported as at least 0.5 g/100 ml.
